Data set [1] is described as follows: Metabolic stability and clearance in human liver microsomes. The data set is classed as in vitro ADME. The settings on record: human liver microsomes 1 mg/mL, 5 μM isomer, mean of 3 parallel measurements; for Metabolic stability: F% (metabolic bioavailability). How it is done: The metabolic stability of norelgestromin E and Z isomers was examined in human liver microsomes. The 2.5 mL incubation mixture contained 6 mM of Na-pyrophosphate, 5 mM of MgCl2, 5 mM of glucose-6-phosphate, 1 U/mL of glucose 6-phosphate dehydrogenase, human liver microsomes (1 mg/mL) and 5 μM of norelgestromin E or Z isomers. The pH was adjusted with 100 mM of Tris-HCl buffer to pH 7.4. The reaction was started by the addition of 5 mM of NADPH. 0.5 mL samples were taken at 0.5 and 20 minutes with immediate precipitation by 0.5 mL of ice-cold methanol. 1 mL precipitated samples were centrifuged for 30 min at 1200 g, and 10 μL of supernatant was injected into the HPLC.
Analytical measurements were conducted using a Merck-Hitachi HPLC system, with UV monitoring at 244 nm. Unchanged material was measured and intrinsic clearance (Clint) and metabolic bioavailability (F%) was calculated with the following equations: dc/dt/c0=Clint, (mL/min×g protein), where dc/dt is the concentration change in a given period of time and c0 is the initial concentration of the norelgestromin isomer (measured in the 0 min sample). Additionally, Clint1×45=Clint2 (mL/min×g liver) and EH=Clin2/Clint2+HBF, where EH is hepatic extraction and HBF is the hepatic blood flow. Finally the metabolic stability: […]
For statistical analysis, Student's t-test was used (Microsoft Excel). The results summarized in Table 2 are calculated as a mean of 3 parallel measurements.
Background: Liver microsomes are vesicles of endoplasmic reticulum, rich in cytochrome P450 enzymes.

In data set [2] the test system is Caco-2 human adenocarcinoma (epithelial) cell line monolayers. Kind of data set: Caco-2 permeability measurement. In kind it is in vitro ADME. The settings on record: Caco-2 monolayer, luminal to basolateral, 50 μM. How it is done:
Drug absorption studies were performed with Caco-2 human adenocarcinoma (epithelial) cell line monolayers as an in vitro model. Passive flux characteristics of drugs across the Caco-2 monolayer have shown a correlation with human oral bioavailability.
Caco-2 cells obtained from American Type Culture collection, Rockville, Md., (ATCC) were grown at 37° C. in an atmosphere of 5% CO2 in Dulbecco's modified eagle medium supplemented with 10% heat inactivated fetal bovine serum (GIBCOBRL 11360-039) and antibiotics: penicillin 100 U/mL, and streptomycin 100 μg/mL (GIBCOBRL 15140-031).
Confluent cell monolayers grown in an incubator (at 37° C. with 5% CO2/[…] and 95% humidity) were subcultured every seven days by treatment with 0.25% trypsin containing 1 mM EDTA.
19-23-day-old confluent monolayers of fully differentiated Caco-2 cells were used for transport studies after 6-10 passages.
EHS Cell Attachment Matrix (Promega G5971), Minimum Essential medium Eagle (MEM) with Earle salts, L-Glutamine (GIBCOBRL 41500-091) and Transwell Polycarbonate Membrane (Costar 3401) were used.
Coated Transwells with EHS Cell Attachment Matrix (Promega G5971) and 200000-500000 Caco-2 cells are applied/inserted. […]
The concentrations of the isomers were determined by liquid chromatography with ultraviolet (HPLC/UV) analysis. […]
Dim.: 125−3 mm.+guard. […] Peak quantitation: height; calculation method: EXT-STD.
For orientation: Passage across Caco-2 layers is used to estimate intestinal permeability.

The nature of data set [3]: Lipophilicity by isocratic reversed-phase HPLC (k′, CHI). The data set is classed as physicochemical. As to conditions: for Polarity (k′, HPLC): Nova-Pak C18, acetonitrile mobile phase, 25° C.; for Polarity (CHI index, HPLC): acetonitrile concentration of the mobile phase where log k′=0. As for the experimental part: Lipophilicity was determined by an HPLC method. The HPLC measurements were performed on a Thermo Separation Product (SpectraSystem P4000 and SpectraFOCUS Forward Optical Scanning Detector) HPLC instrument. Data were analyzed by ChromQuest (ver. 2.51) software.
For reversed-phase HPLC measurements, a Nova-Pak C18 column was used (dimension of 4 μm×4.6 mm×250 mm: Waters, Ireland). Detection was performed at λ=280 nm and 25° C. The flow rate of the mobile phase was 1.0 mL/min. HPLC gradient grade acetonitrile was used as organic component (Merck KGaA., Darmstadt, Germany). The retention data of the two isomers were obtained by isocratical analysis of the mobile phases containing different amounts of acetonitrile. The void time (t0) was determined by injection of methanol.
Samples were dissolved in a 1:1 mixture of acetonitrile:water in a concentration of 1 mg/4 mL. The log k′ values were calculated from the mean retention time measured after two subsequent injections of 10 μL volume (log k′=log((tR−t0)/t0)). The log k′ values were represented as a function of the concentration of acetonitrile.
The chromatographical hydrophobicity index (CHI) is a measure of the lipophilic character of the compounds in the reversed phase HPLC measurements. By definition, the CHI parameter is that concentration of acetonitrile of the mobile phase where log k′=0.

Data set [4] can be described thus: Equilibrium solubility in distilled water (UV spectrophotometry). In kind it is physicochemical. The settings on record: thermodynamic from solid, room temperature. How it is done:
The determination of equilibrium solubility of E and Z isomers of norelgestromin was carried out in distilled water. 20 mg of norelgestromin was added to 20 mL of distilled water at room temperature. The suspension was stirred continuously and samples were withdrawn from time to time. The samples were filtered, and the norelgestromin content of the filtrates was determined by a spectrophotometrical method measuring UV absorption. The spectrophotometrical measurements were performed on a VARIAN Cary 3E spectrophotometer at room temperature.

Data set [5] can be described thus: CHI of six steroids (structure-absorption experiment). In kind it is physicochemical. The settings on record: chromatographical hydrophobicity index, isocratical conditions. As for the experimental part:
The beneficial effect of the increasing lipophilicity for the transdermal absorption was proven by carrying out a structure-absorption experiment with six different steroids. In the following publications: Int. J. Pharm. 217:1 (2001), and J. Chromatography 49:631 (1993), it has been shown that the chromatographical hydrophobicity index (CHI) measured under isocratical conditions is a reliable descriptor of lipophilicity. The CHI values of the investigated steroids were determined according to these experiments (Table 3) and correlated with the measured stratum corneum/water distribution coefficients.

In brackets after ≈: the same amount, converted by molar mass.

A word on the solubility: it is the dissolved amount per volume that the medium holds. Low readings indicate a poorly soluble substance, high ones a readily soluble substance.

For the compound `C#C[C@]1(O)CC[C@H]2[C@@H]3CCC4=C/C(=N\O)CC[C@@H]4[C@H]3CC[C@@]21CC` (single isomer, unassigned; isomer d) [Z-isomer, d-(17α)-13-ethyl-17-hydroxy-18,19-dinorpregn-4-ene-20-yn-3-one-(3Z)-oxime], in data set [1], the Metabolic stability is given as 91.9 ± 1.52 and the “Metabolic clearance (mL/min g liver)” value is reported as 0.1042 ± 0.021 mL/min g liver. In addition, the “Concentration on the abluminal side (μM in the 30th min)” value in data set [2] worked out at 1.98 ± 0.78 µM. In addition, in data set [3], the “Polarity (k′, HPLC)” value is given as 1.46 and the “Polarity (CHI index, HPLC)” value worked out at 70. For the same compound, the concentration in solution in data set [4] (solubility) was 12.1 µg/mL (≈ 37 µM).
Consider `C#C[C@]1(O)CC[C@H]2[C@@H]3CCC4=C/C(=N/O)CC[C@@H]4[C@H]3CC[C@@]21CC` (single isomer, unassigned; isomer d) [E-isomer, d-(17α)-13-ethyl-17-hydroxy-18,19-dinorpregn-4-ene-20-yn-3-one-(3E)-oxime], for which, in data set [1], the Metabolic stability is 86.7 ± 1.67 and the “Metabolic clearance (mL/min g liver)” value is 0.1815 ± 0.026 mL/min g liver. For the same compound, in data set [2], the “Concentration on the abluminal side (μM in the 30th min)” value was determined as 1.27 ± 0.56 µM. Further, in data set [3], the “Polarity (k′, HPLC)” value turned out to be 1.02 and the “Polarity (CHI index, HPLC)” value came to 74. This compound also yielded a solubility in data set [4] of 3.8 µg/mL (≈ 11.6 µM).
As to `C[C@]12CC[C@@H]3c4ccc(O)cc4CC[C@H]3[C@@H]1C[C@@H](O)[C@@H]2O` [Estriol], the CHI in data set [5] came to 40.45.
Same read-out and setting: the same measure for `C[C@]12CC[C@H]3[C@@H](CCC4=CC(=O)CC[C@@]43C)[C@@H]1CC[C@@H]2O` [Testosterone]: 75.87; for `C[C@]12CCC(=O)C=C1CC[C@@H]1[C@@H]2CC[C@@]2(C)[C@H]1CC[C@]2(O)C(=O)CO` [Cortexolone]: 54.87; for `CC(=O)[C@H]1CC[C@H]2[C@@H]3CC=C4C[C@@H](O)CC[C@]4(C)[C@H]3CC[C@]12C` [Pregnenolone]: 95.36.
Same read-out and setting: the same measure for `C[C@]12CCC(=O)C=C1CC[C@@H]1[C@@H]2[C@@H](O)C[C@@]2(C)[C@H]1CC[C@]2(O)C(=O)CO` [Hydrocortisone]: 33.8.

The values above are taken from patent US7576226B2, “Process of making isomers of norelgestromin and methods using the same” (priority 2003, dated 2009).
